# From US20100160297A1, “COMPOUNDS FOR PIM KINASE INHIBITION AND FOR TREATING MALIGNANCY” (Amnestix, Inc., priority 2008, published 2010)
# “Also recorded” adds a separate entry of the source. Where a name gives a salt, the structure may show the parent alone.
# Target: T1, PIM-1 kinase (Homo sapiens, UniProt P11309)
# T1 construct: purchased Cell Signaling Technology Inc., Boston, USA
# Experiment: In vitro assay for PIM-1 kinase inhibition (PIM-1 Kinase Assay Kit, colorimetric ELISA)
# Assay type: biochemical
# Conditions: test compound 100 μM final concentration; normalized to positive control (no test compound) = 100% activity; 1.5 or 2.5 ng PIM-1 kinase, 200 μM ATP
# Protocol: (§1) In vitro assays of PIM-1 kinase activity (1.5 ng) in the presence of increasing concentrations of the compounds A, B, C or D were performed as described within example 5. An assay without additional test compound served as positive control for the assay (pos) and an assay without PIM-1 kinase served as negative assay (neg). […] Each assay result was normalized in comparison to the positive control which was defined as 100% activity.
# as §1, with “(2.5” for “(1.5”, “compound E” for “compounds A, B, C or D”
# The in vitro assay for PIM-1 kinase inhibition was performed using the PIM-1 Kinase Assay Kit (Cell Signaling Technology Inc., Boston, USA) according to the manufacture's instruction. Briefly, 1.5 or 2.5 ng PIM-1 kinase has been dissolved in 50 μl assay buffer (25 mM Tris-Hcl (pH 7.5), 10 mM MgCl2, 5 mM beta-glycerophosphate, 0.1 mM Na3VO4, 2 mM DTT, 200 μM ATP, and 1.5 μM peptide substrate) and test compound has been added to a final concentration in a range of 0.1 to 100 μM. After 30 minutes incubation at ambient temperature the reaction was stopped by adding 50 μl Stop buffer (50 mM EDTA, pH 8) per reaction. An aliquot of 25 μl per reaction was diluted each by 75 μl water and transferred to a 96-well streptavidin-coated plate. After 60 minutes incubation and three times washing with PBS, 100 μl/well primary antibody (Phospho-Bad (Ser112) antibody, 1:1000 diluted in PBS) was added. After further 2 h incubation and three times washing with PBS, an usual colorimetric ELISA assay was performed using a HRP labeled second antibody according to the manufacture's instructions. A PIM kinase reaction without addition of a test compound served as positive control (pos) and an assay without PIM kinase served as negative control (neg). […] The PIM-1 kinase inhibition of the test compounds (1-chloro-5-([1,4]diazepane-1-sulfonyl)-8-propoxy-isoquinoline (compound A), 1-chloro-5-(piperazin-1-sulfonyl)-8-methoxy-isoquinoline (compound B), 1-methyl-5-([1,4]diazepane-1-sulfonyl)-8-methoxy-isoquinoline (compound C), and 1-chloro-5-([1,4]diazepane-1-sulfonyl)-6-methoxy-isoquinoline (compound D)) was measured in a first series of assays, and the one of the compound 5-([1,4]diazepane-1-sulfonyl)-8-methoxy-isoquinoline (compound E) was measured in a second series of assays. Within each series of assays the measured PIM-1 kinase activity was normalized in comparison to the positive control (pos) which was defined as 100% activity. […] The table below summarizes the percentage of the remaining PIM-1 kinase activity in the presence of the test compounds in a final concentration of 100 μM.
# T1 sequence (P11309 whole entry): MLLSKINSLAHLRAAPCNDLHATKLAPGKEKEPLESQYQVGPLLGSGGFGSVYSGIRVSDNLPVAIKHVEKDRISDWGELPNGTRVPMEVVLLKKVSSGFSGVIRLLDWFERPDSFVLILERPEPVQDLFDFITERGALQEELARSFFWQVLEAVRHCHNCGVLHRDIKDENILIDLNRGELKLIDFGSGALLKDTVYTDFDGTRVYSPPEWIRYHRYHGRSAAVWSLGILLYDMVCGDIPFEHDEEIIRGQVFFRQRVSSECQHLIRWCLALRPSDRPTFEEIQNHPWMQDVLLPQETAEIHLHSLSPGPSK
row,Structure (SMILES),% remaining PIM-1 kinase activity [%]
1,"COc1ccc(S(=O)(=O)N2CCCNCC2)c2ccnc(Cl)c12 [G, 1-chloro-8-methoxy-Fasudil, reference compound]",17

# Same assay, conditions: test compound 0.1 to 100 μM; FIG. 1 (1.5 ng PIM-1) and FIG. 2 (2.5 ng PIM-1)
row,Structure (SMILES),PIM-1 kinase inhibition (result in words)
1,"O=S(=O)(c1cccc2cnccc12)N1CCCNCC1 [F, Fasudil, reference compound]",at the most very weak PIM-1 inhibition
2,"COc1ccc(S(=O)(=O)N2CCCNCC2)c2ccnc(Cl)c12 [G, 1-chloro-8-methoxy-Fasudil, reference compound]",very potent PIM-1 inhibitor
3,"COc1ccc(S(=O)(=O)N2CCCNCC2)c2ccnc(C)c12 [C, 1-methyl-5-([1,4]diazepane-1-sulfonyl)-8-methoxy-isoquinoline]",potent PIM inhibitory effect; also recorded: potent PIM-1 kinase inhibitors
4,"COc1ccc2c(Cl)nccc2c1S(=O)(=O)N1CCCNCC1 [D, 1-chloro-5-([1,4]diazepane-1-sulfonyl)-6-methoxy-isoquinoline]",potent PIM inhibitory effect; also recorded: potent PIM-1 kinase inhibitors
5,"COc1ccc(S(=O)(=O)N2CCNCC2)c2ccnc(Cl)c12 [B, 1-chloro-5-(piperazin-1-sulfonyl)-8-methoxy-isoquinoline]",potent PIM inhibitory effect; also recorded: potent PIM-1 kinase inhibitors
6,"COc1ccc(S(=O)(=O)N2CCCNCC2)c2ccncc12 [E, 5-([1,4]diazepane-1-sulfonyl)-8-methoxy-isoquinoline]",at most a moderate PIM-1 kinase inhibition; also recorded: only weak PIM inhibitory effect
7,"CCCOc1ccc(S(=O)(=O)N2CCCNCC2)c2ccnc(Cl)c12 [Compound A, 1-chloro-5-([1,4]diazepane-1-sulfonyl)-8-propoxy-isoquinoline]",potent PIM inhibitory effect; also recorded: potent PIM-1 kinase inhibitors

# Test system: not given
# Experiment: not given
# Conditions: not given
row,Structure (SMILES),melting point [°C]
1,"COc1ccc2c(Cl)nccc2c1S(=O)(=O)N1CCCNCC1 (as salt: hydrochloride) [1-chloro-5-([1,4]diazepane-1-sulfonyl)-6-methoxy-isoquinoline]",219 to 221
